Here are results for 90 compounds from a melting point compilation (Tetko et al.; mined from patent text by program, amines drawn as free bases though some values may be those of a salt).

Bounds are passed on as bounds.

On to `CN(C)Cc1ccc(CSCCNC(=C[N+](=O)[O-])NCCCCCCCCCCCCNC(=C[N+](=O)[O-])NCCSCc2ccco2)o1`, for which the melting point lay in the range of 69 to 72 °C.

For the compound `CCOC(=O)C(=C1SCSCS1)c1ccc(Oc2ccccc2)cc1`, the melting point is 134 to 135 °C. In the case of `O=C(O)c1ccc(Cl)c2c1NCCS2`, the melting point is 220 °C. On to `CCOc1cc(CCl)nc(C)n1`, for which the melting point was found to be 29 °C. `COC(=O)CCCC(=O)c1ccc(OCCCC/C=C/c2ccc(OC)cc2)c(O)c1` returned a melting point of 78 to 80 °C. Consider `CCCc1nn(C)c2c(=O)n(CCNc3ccc(OC(C)(C)C(=O)O)cc3)c(CC)nc12`, for which the melting point lay within 136 to 138 °C. For the compound `CCc1nc(NC)nc2c1ncn2C1CC(F)C(CO)O1` (stereo not given), the melting point was in the range of 99 to 100 °C.

Compound `CCOC(=O)c1cc2cc(NC(C)=O)ccc2nn1` returned a melting point of 256 to 258 °C. `CCS(=O)(=O)CC(=O)Nc1c(C)cccc1C` displayed a melting point of 128 to 130 °C. The value for `O=Cc1c2ccc3ccccc3c2cc2ccsc12` was 199 to 200 °C; that for `CCOC(=O)C(CC#N)(C(=O)OCC)C1COC(=O)C1` (stereo not given) was 77 to 78 °C; that for `c1ccc2c(c1)SSSSS2` was 56 to 58 °C.

With `CC(C)C(=O)N[C@H]1CCc2c(c3cc(Br)ccc3n2Cc2ccccc2)C1`, the melting point fell in the range of 177 to 179 °C. On to `Cc1ccc2cccc(OCc3c(Cl)ccc(S(=O)(=O)N(C)CCCCCC(=O)O)c3Cl)c2n1`, for which the melting point lay in the range of 98 to 102 °C. For the compound `O=C(Nc1nnn[nH]1)c1cccc([N+](=O)[O-])c1`, the melting point is 276 °C. Take `C#CCCCON1Sc2cccc3cccc1c23`: the melting point lay in the range of 56 to 59 °C. For `CCOC(=O)NC=Cc1ccc(OCC(O)CNC(C)(C)C)cc1` (stereo not given), the melting point is 99 to 100 °C. With `COc1cc(C(=O)Cc2ccccc2C)ccc1O` the figure was 79 to 81 °C. In the case of `CS(=O)(=O)NCCc1ccc2c(c1)C(=O)c1ccccc1CO2`, the melting point lay within 104 to 106 °C. `CCCc1c(OCCCOc2ccc(C(=O)O)cc2)ccc(C(C)=O)c1O` had a melting point of 180 to 183 °C. On to `NC(=O)CN1CC[C@H](OCc2cc(C(F)(F)F)cc(C(F)(F)F)c2)[C@H](c2ccccc2)C1` (relative stereo), for which the melting point lay in the range of 123 to 125 °C. `COCc1nc(N)nc(N)c1-c1ccc(Cl)c(Cl)c1` yielded a melting point of 204 to 206 °C. `Nc1ccc(C=Cc2ccc3ccccc3n2)cc1` had a melting point of 178 to 180 °C.

`O=C(NC1CCN(C(=O)OCCC2(C(=O)NCC(F)(F)F)c3ccccc3-c3ccccc32)CC1)c1ccccc1Oc1ccccc1` returned a melting point of 68 to 73 °C. `CC(C)(C(=O)Nc1cccc(Cl)c1)N1OCC(CI)=C(c2ccccc2)C1=O` registered a melting point of 135 to 137 °C.

With `CC(C)(O)C(=O)c1ccc(OCC(=O)O)cc1`, the melting point lay within 131 to 134 °C. `C=CCOc1ccc2c(C)cc(=O)oc2c1C(=O)C=Cc1cccnc1`: the melting point fell in the range of 124 to 126 °C.

`O=C(c1cccs1)c1cnn2c(-c3cccc(-c4nnn(Cc5cccnc5)n4)c3)ccnc12` came in with a melting point of 95 °C. `NC(=O)c1ccc2cc(Nc3ccc(O)cc3)ccc2c1`: the melting point is 260 °C. In turn, `COc1cc(Nc2c(C#N)cnc3cc(-c4cnc(C=O)n4C)sc23)c(Cl)cc1Cl` had a melting point of 225 to 227 °C. In turn, `O=C(CBr)NCCC(=O)ON1C(=O)CCC1=O` gave a melting point of 107 to 110 °C.

`CC(C)(C)OC(=O)Nc1cccc(C(=O)NCC(=O)OCc2ccccc2)c1` displayed a melting point of 171 to 173 °C. `CNC(=O)N(C)c1ccc(Cl)c(COc2cccn3c(Br)c(C)nc23)c1Cl` showed a melting point of 192 to 193 °C. With `O=C(O)c1ccccc1N1CCN(CC(O)COc2ccc3c(c2)OCO3)CC1` (stereo not given) the figure was 229 to 231 °C.

As to `CC1(C)Cc2cc3c(cc2O1)OCC31C(=O)N(CC(=O)Nc2ccccc2F)c2cccc(-c3cncnc3)c21` (stereo not given), the melting point was above 250 °C. `COc1cc(N)ccc1OC[C@H](O)C1CC1`: the melting point amounted to 71 °C. Regarding `Cc1cc2c(=O)c(Cc3cccnc3)cn3c4ccc(Br)cc4c(c1)c23`, the melting point was in the range of 202 to 204 °C.

As to `O=Cc1cc(F)c(NC(=O)C(F)(F)F)c(F)c1`, the melting point lay within 122 to 125 °C. With `N#CN=C(Nc1cccnc1)NC(NC(=O)c1ccc(Cl)cc1)C(Cl)(Cl)Cl` (stereo not given) the figure was 126 to 128 °C; with `CCOC(=O)Cc1c(C(=O)c2ccc(Cl)cc2)[nH]c2cc(Cl)ccc12`, 186 to 188 °C. The value for `CSc1ccc(-c2nn(CC=Cc3ccccc3)c(=O)cc2-c2ccc(Cl)cc2)cc1` was 109 to 110 °C; that for `Nc1nc(N)c2ncn(C3OC(COCc4ccccc4)C(OCc4ccccc4)C3OCc3ccccc3)c2n1` (stereo not given) was 158 to 159 °C.

For the compound `CS(=O)(=O)c1ccc(-n2nccc2-c2ccc(-c3ccco3)cc2)cc1F`, the melting point fell in the range of 155 to 156 °C.

Turning to `CC(=O)ON1C(C)(C)CC2(CC1(C)C)OCC(C)(C)CO2`, the melting point lay within 109 to 111 °C. Consider `CCOCC(=O)N1Cc2cc(Cl)ccc2CC(C)C1=O` (stereo not given), for which the melting point lay within 123 to 124 °C. In turn, `CO/C=C(/C(=O)OC)c1cccnc1Oc1cccc(O)c1` gave a melting point of 163 to 165 °C. `OC(CN1CCCC1)c1cc(C(F)(F)F)nc2c(C(F)(F)F)cccc12` (stereo not given) returned a melting point of 92 to 94 °C. Take `COc1ccc(Cn2nc(-n3cnn(Cc4ccc(F)cc4)c3=O)cc2C(=O)O)cc1`: the melting point lay within 205 to 207 °C.

For the compound `CS(=O)(=O)Nc1cc(C(c2cc(F)ccc2F)S(=O)(=O)c2ccc(Cl)cn2)c(Cl)cn1` (stereo not given), the melting point lay in the range of 214 to 216 °C. For `CC(=O)C(=Cc1ccc(Cl)c([N+](=O)[O-])c1)C(C)=O`, the melting point was in the range of 110 to 111 °C.

For `COc1cc2c(cc1OC)C(=O)C(=CC=Cc1ccc(N(C)C)cc1)C2`, the melting point was 210 to 213 °C.

The compound `O=C(Cn1c(-c2ccc(Cl)cc2)nc2cccnc21)NC1CC1` showed a melting point of 231 to 232 °C. In turn, `COc1cc(C(=O)NS(=O)(=O)c2ccccc2)ccc1Cc1nn(C)c2ccc(NC(=O)OC3CCCC3)cc12` returned a melting point of 145 °C. Regarding `O=c1cc(-c2ccc(Cl)cc2)sc(N2CCOCC2)c1`, the melting point was in the range of 202 to 204 °C. The value for `CCOC(=O)c1cnc(Nc2ccccc2OCC(C)C)[nH]c1=O` was 175 to 177 °C; that for `CC(=O)OC1CSC(Oc2cncc(-c3cccnc3)c2)C(OC(C)=O)C1OC(C)=O` (stereo not given) was 149 °C; that for `Cc1ccc(CN2CCN(C(=O)OC(C)(C)C)CC2)cc1` was 61 to 62 °C. Take `CCOC(=O)c1cn(C2CC2)c2c(F)c(C(C#N)C(=O)OCC)c(F)c(F)c2c1=O` (stereo not given): the melting point was 98 to 100 °C. In the case of `C#CCN1CCC(C(C)(C)CO)CC1`, the melting point lay in the range of 78 to 82 °C. For `Cn1cc(Sc2ccccc2)c(=O)c(-c2ccccc2)c1`, the melting point lay in the range of 164 to 165 °C. For `N#CCCN1CCCCC1=Nc1ccccc1N1CCOCC1`, the melting point was determined as 148 °C. The value for `CC(C)(C)C1=NN(c2ccc(C(=O)O)cc2)C(c2ccc(Br)cc2)C1` (stereo not given) was 222 °C; that for `Cc1nc(N)nc(N)c1-c1cc(Cl)ccc1Cl` was 226 to 228 °C. `Cc1c(-c2ccccc2)sc2ncc(C(=O)C(C)C)c(O)c12` yielded a melting point of 114 to 117 °C. `O=C1NC(=O)C(c2c[nH]c3ccccc23)N1` (stereo not given): the melting point is 229 to 230 °C.

Turning to `NS(=O)(=O)Oc1ccc(I)cc1`, the melting point lay within 146 to 147 °C. With `COC(=O)C(Cc1ccc([N+](=O)[O-])c(OCc2ccccc2)c1)NC(=O)OC(C)(C)C` (stereo not given) the figure was 104 to 105 °C; with `O=[N+]([O-])c1ccccc1N1CCc2cc(Cl)ccc21`, 85 to 89 °C; with `COc1cc(C(N)=S)c2c(c1OC)C(=O)CC2`, 196 to 199 °C. In turn, `C=CCc1c(O)cc(O)c(C(C)=O)c1O` returned a melting point of 158 to 159 °C. Compound `CCOC(=O)c1cccc(C2COc3cc(O)c(O)cc3C2)c1` (stereo not given) returned a melting point of 131 to 133 °C. The value for `C[C@@H](NC(=O)[C@H](Cc1ccc(OC(C)(C)C)cc1)NC(=O)OC(C)(C)C)C(=O)O` was 186 to 187 °C. For `CCCCCCc1cnc(-c2ccc(F)cc2)nc1`, the melting point is 39 °C. For `O=C(Nc1cccc(C(F)(F)F)c1)c1ccc([N+](=O)[O-])cc1`, the melting point worked out at 210 °C. With `CNc1cc(Cl)cc(N)c1[N+](=O)[O-]` the figure was 129 °C; with `COC(=O)c1cc(C)cc(OC)c1C1=C(OC)C(=O)c2c(O)cccc2C1=O`, 165 to 167 °C. Consider `O=C(O)c1ccc(C#Cc2ccccc2)cc1`, for which the melting point lay in the range of 224 to 225 °C. The value for `O=[N+]([O-])C=C1CN=C(c2ccccc2Cl)c2cc(Cl)ccc2N1` was 182 to 185 °C; that for `O=c1c2c(CCc3ccncc3)n[nH]c2c2cccnc2n1-c1cccc([N+](=O)[O-])c1` was 161 to 165 °C; that for `O=c1ncc(Br)cn1CSc1ccc(F)cc1` was 206 °C.

For the compound `Cc1ccc(Oc2cccc(-c3cccc(C(=O)NCCC#N)c3)n2)c(C)c1`, the melting point was 114 to 115 °C. With `COc1ccc2c3c1OC1C4(CCC5(F)C(C2)N(C(=O)C2CC2)CCC315)OCCO4` (stereo not given) the figure was 191 to 193 °C; with `O=C(O)c1ccc2cc([N+](=O)[O-])c3ccc(C(=O)O)nc3c2n1`, 218 to 220 °C.

Compound `CS(=O)(=O)Nn1c(=O)[nH]c2cc([N+](=O)[O-])c(N3CCOCC3)cc2c1=O` gave a melting point above 260 °C. In turn, `COc1ccccc1-c1nc2cc(NC(=O)OC(C)(C)C)ccn2n1` returned a melting point of 203 °C. Consider `CC(=O)c1cc(-c2ccncc2)sc1Oc1ccccc1`, for which the melting point lay within 103 to 105 °C.

Compound `O=S(=O)(CC=C(c1ccccc1)c1ccccc1)c1ccccc1` displayed a melting point of 106 °C. Compound `COc1ccc2cc(S(=O)(=O)Cl)cc(OC)c2c1` came in with a melting point of 134 °C. In turn, `COCc1c(C(=O)OC(C)(C)C)ncc2[nH]c3ccc(Oc4ccc(Br)cn4)cc3c12` displayed a melting point of 173 to 175 °C.

As for `Cc1cccc(Cc2ccc(-c3cnn4c(O)ncnc34)cc2C)c1`, the melting point was 259 to 262 °C.
